Experimental data reported in patent publication EP0619297B1, “Fungicides for the control of take-all desease of plants” (MONSANTO COMPANY, priority 1993, dated 1994).
Values after ≈ are worked out from the molar mass of the structure shown. Like-named read-outs stand apart in the source and are kept apart here.

Key:
Ggt = assay: In vivo assay: control of Ggt on wheat in 3-inch pots with infested soil, rated after four weeks;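 as to In vivo(ppm) 0.1, percent disease control: rate is mg active ingredient per pot in 3 mL solution not ppm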;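 as to In vivo(ppm) 0.5, percent disease control: rate is mg active ingredient per pot in 3 mL solution not ppm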; parameters: species or system Gaeumannomyces graminis var. tritici; conditions: Gaeumannomyces graminis, 672 h; for pest or weed control at 0.1 mg/pot: read-out: In vivo(ppm) 0.1, percent disease control; for pest or weed control at 0.5 mg/pot: read-out: In vivo(ppm) 0.5, percent disease control; for pest or weed control at 0.02 mg/pot: read-out: In vivo(ppm) 0.02mg/pot, percent disease control
Method: Compounds are tested for control of Ggt on 'Bergen' or 'Anza' varieties of wheat grown in 3-inch square pots containing soil infested with Ggt. The infestation is accomplished by mixing the soil with an inoculum prepared by growing Ggt on 1/4 strength potato dextrose agar (4.875 g potato dextrose agar, 5.0 g Bacto agar, 500 mL distilled, deionized water) in plates and using plugs from the plates to infest sterile oats (400 cc whole oats, 350 mL deionized water, autoclaved). After a one-month incubation period at room temperature, the oats are dried and mixed with the soil at 4% v/v. Four wheat seeds are placed on top of the soil in each pot. […] Five pots are used for each treatment level and the controls, which are untreated, inoculated and non-inoculated pots. After one hour drying time, the seeds are covered with more of the appropriate soil and a layer of vermiculite. The pots are placed in a growth chamber and watered each day. After four weeks, each pot is evaluated for evidence of disease by examination of the seminal roots of each plant under a dissecting microscope. A 0 to 5 rating scale having the following meanings is used: • 0 = no runner hyphae or lesions present • 1 = runner hyphae and a few small lesions present on <10% of root system • 2 = runner hyphae and small lesions present on 10 - 25% of root system • 3 = runner hyphae and lesions present on 25 - 50% of root system • 4 = runner hyphae and many, large, coalescing lesions on >50% of root system • 5 = root system and culm completely inundated with lesions and runner hyphae
From each set of five replicates a high or low score may be eliminated to assure the best representative scores are used to calculate a replicate mean by averaging the remaining scores. This mean score is then compared to the untreated control score and a percent disease control is calculated.

[1] = tested on: Gaeumannomyces graminis var. tritici (Ggt); assay: In vitro assay: mycelial growth on minimal media agar plates (Percent Inhibition; IC50); type: cell-based; conditions: for inhibition at 0.1 ppm: read-out: In vitro(ppm) 0.1, Percent Inhibition; for inhibition at 1 ppm: read-out: In vitro(ppm) 1, Percent Inhibition; for inhibition at 10 ppm: read-out: In vitro(ppm) 10, Percent Inhibition; for IC50: interpolated from percent inhibition at 1, 0.1, 0.01, 0.001 and 0.0001 ppm
Method: The test compounds (0.25 mL of an appropriate stock solution in acetone) are incorporated into 25 mL minimal media agar [prepared by autoclaving a solution of 17.5 g Czapek Dox broth (Difco), 7.5 g purified agar or Bacto-agar (Difco), and 500 mL distilled/deionized water, and then adding 50 µL of 1 mg/mL thiamine hydrochloride and 50 µL of 1 mg/mL biotin in 5% ethanol] and plates are prepared.
Each plate is inoculated by placing in a triangular shape three 4-mm plugs of Gaeumannomyces graminis var. tritici (Ggt) grown on the minimal media agar described above. The plates are incubated in the dark at 19 - 20 °C for 4 to 5 days. The growth of the fungus is measured as the diameter of the mycelial growth. The result is expressed as Percent Inhibition, calculated as [1 - [(mm growth on treated plate - 4)/(mm growth on control plate - 4)]] x 100.
To determine IC5O values, an in vitro assay was run on each compound at the concentrations of 1, 0.1, 0.01, 0.001, and 0.0001 ppm. The percent inhibition was calculated for each concentration using the equation described in the in vitro assay under the section on Biological Assays. Using the two ordered pairs of (concentration, % inhibition) that bracket 50% inhibition of fungal growth, the concentration for 50% inhibition is calculated from the following equation. IC50 = [(50-I2 )C1 + (I1 -50)C2 ]/(I1 -I2 ), [formula] where C1 = 10C2.

[2] = rate 0.02mg/pot, wheat, soil infested with Ggt, after four weeks
[3] = rate 0.1 (head prints ppm, head line ends mg/pot), wheat, soil infested with Ggt, after four weeks, N = no control
[4] = rate 0.5 (head prints ppm, head line ends mg/pot), wheat, soil infested with Ggt, after four weeks, N = no control
[5] = 0.1 ppm in agar, 19 - 20 °C, 4 to 5 days
[6] = 1 ppm in agar, 19 - 20 °C, 4 to 5 days
[7] = 10 ppm in agar, 19 - 20 °C, 4 to 5 days

## CCNC(=O)c1c([Si](C)(C)C)oc2ccccc12 [Example 12, N-Ethyl-2-(trimethylsilyl)-3-benzofurancarboxamide]
Ggt; soil
  pest or weed control at 0.1 mg/pot: 85%
  pest or weed control at 0.5 mg/pot: 97%
[1]
  inhibition at 0.1 ppm: 97%
  inhibition at 1 ppm: 97%
  inhibition at 10 ppm: 100%

## C=CCNC(=O)c1c([Si](C)(C)C)sc2ccccc12 [Example 13, N-2-Propenyl-2-(trimethylsilyl)benzo[b]thiophene-3-carboxamide]
Ggt; soil
  pest or weed control at 0.1 mg/pot: 84%
  pest or weed control at 0.5 mg/pot: 94%
[1]
  inhibition at 0.1 ppm: 100%
  inhibition at 1 ppm: 100%
  inhibition at 10 ppm: 100%

## CCN(CC)C(=O)c1c([Si](C)(C)C)sc2ccccc12 [Example 14, N,N-Diethyl-2-(trimethylsilyl)benzo[b]thiophene-3-carboxamide]
Ggt; soil
  pest or weed control at 0.1 mg/pot: 76%
  pest or weed control at 0.5 mg/pot: 94%
[1]
  inhibition at 0.1 ppm: 42%
  inhibition at 1 ppm: 92%
  inhibition at 10 ppm: 100%

## CCN(SC)C(=O)c1c([Si](C)(C)C)sc2ccccc12 [Example 16, N-Ethyl-N-(methylthio)-2-(trimethylsilyl)benzo[b]-thiophene-3-carboxamide]
Ggt; soil
  pest or weed control at 0.1 mg/pot: 87%
  pest or weed control at 0.5 mg/pot: 93%
[1]
  inhibition at 0.1 ppm: 100%
  inhibition at 1 ppm: 100%
  inhibition at 10 ppm: 100%

## CC(C)N(O)C(=O)c1c([Si](C)(C)C)sc2ccccc12 [Example 17, N-Hydroxy-N-(1-methylethyl)-2-(trimethylsilyl)benzo[b]-thiophene-3-carboxamide]
Ggt; soil
  pest or weed control at 0.1 mg/pot: 42%
  pest or weed control at 0.5 mg/pot: 46%
[1]
  inhibition at 0.1 ppm: 96%
  inhibition at 1 ppm: 100%
  inhibition at 10 ppm: 100%

## CC(C)(C)Nc1ccc2ccccc2c1C(=O)NCCBr [Example 18, N-(2-bromoethyl) 2-[(1,1-dimethylethyl)amino]-1-naphthamide]
Ggt; soil
  pest or weed control at 0.02 mg/pot: 0%
  pest or weed control at 0.1 mg/pot: 0%
  pest or weed control at 0.5 mg/pot: 14%
[1]
  inhibition at 0.1 ppm: 10%
  inhibition at 1 ppm: 88%
  inhibition at 10 ppm: 98%

## CCC(C)(C)Nc1ccc2ccccc2c1C(=O)NCCBr [Example 19, N-(2-bromoethyl) 2-[(1,1-dimethylpropyl)amino]-1-naphthamide]
Ggt; soil
  pest or weed control at 0.02 mg/pot: 0%
  pest or weed control at 0.1 mg/pot: 0%
  pest or weed control at 0.5 mg/pot: 22%
[1]
  inhibition at 0.1 ppm: 68%
  inhibition at 1 ppm: 93%
  inhibition at 10 ppm: 98%

## CCNC(=O)c1c(NC(C)(C)C)ccc2ccccc12 [Example 20, N-ethyl 2-[(1,1-dimethylethyl)amino]-1-naphthamide]
Ggt; [2]
  pest or weed control at 0.02 mg/pot: 5%
Ggt; [3]
  pest or weed control at 0.1 mg/pot: 24%
Ggt; [4]
  pest or weed control at 0.5 mg/pot: 61%
[1]; [5]
  inhibition at 0.1 ppm: 80%
[1]; [6]
  inhibition at 1 ppm: 98%
[1]; [7]
  inhibition at 10 ppm: 100%
[1]
  IC50: 71.6 ng/mL (≈ 0.265 µM)

## CCCNC(=O)c1c(NC(C)(C)C)ccc2ccccc12 [Example 21, N-propyl 2-[(1,1-dimethylethyl)amino]-1-naphthamide]
Ggt; [2]
  pest or weed control at 0.02 mg/pot: 35%
Ggt; [3]
  pest or weed control at 0.1 mg/pot: 60%
Ggt; [4]
  pest or weed control at 0.5 mg/pot: 78%
[1]; [5]
  inhibition at 0.1 ppm: 95%
[1]; [6]
  inhibition at 1 ppm: 97%
[1]; [7]
  inhibition at 10 ppm: 97%
[1]
  IC50: 8.5 ng/mL (≈ 0.0299 µM)

## CCNC(=O)c1c(NC(C)(C)CC)ccc2ccccc12 [Example 22, N-ethyl 2-[(1,1-dimethylpropyl)amino]-1-naphthamide]
Ggt; [2]
  pest or weed control at 0.02 mg/pot: 11%
Ggt; [3]
  pest or weed control at 0.1 mg/pot: 41%
Ggt; [4]
  pest or weed control at 0.5 mg/pot: 70%
[1]; [5]
  inhibition at 0.1 ppm: 95%
[1]; [6]
  inhibition at 1 ppm: 98%
[1]; [7]
  inhibition at 10 ppm: 98%
[1]
  IC50: 9.18 ng/mL (≈ 0.0323 µM)

## CCNC(=O)c1c(NC(C)(CC)CC)ccc2ccccc12 [Example 23, N-ethyl 2-[(1,1-diethylethyl)amino]-1-naphthamide]
Ggt; [2]
  pest or weed control at 0.02 mg/pot: 50%
Ggt; [3]
  pest or weed control at 0.1 mg/pot: 65%
Ggt; [4]
  pest or weed control at 0.5 mg/pot: 85%
[1]; [5]
  inhibition at 0.1 ppm: 21%
[1]; [6]
  inhibition at 1 ppm: 21%
[1]; [7]
  inhibition at 10 ppm: 43%
[1]
  IC50: 6.62 ng/mL (≈ 0.0222 µM)

## CCCNC(=O)c1c(NC(C)(CC)CC)ccc2ccccc12 [Example 24, N-propyl 2-[(1,1-diethylethyl)amino]-1-naphthamide]
Ggt; [2]
  pest or weed control at 0.02 mg/pot: 32%
Ggt; [3]
  pest or weed control at 0.1 mg/pot: 38%
Ggt; [4]
  pest or weed control at 0.5 mg/pot: 76%
[1]; [5]
  inhibition at 0.1 ppm: 95%
[1]; [6]
  inhibition at 1 ppm: 95%
[1]; [7]
  inhibition at 10 ppm: 100%
[1]
  IC50: 0.814 ng/mL (≈ 0.00261 µM)

## CCCNC(=O)c1c(NC(C)(C)CC)ccc2ccccc12 [Example 25, N-propyl 2-[(1,1-dimethylpropyl)amino]-1-naphthamide]
Ggt; [2]
  pest or weed control at 0.02 mg/pot: 17%
Ggt; [3]
  pest or weed control at 0.1 mg/pot: 57%
Ggt; [4]
  pest or weed control at 0.5 mg/pot: 78%
[1]; [5]
  inhibition at 0.1 ppm: 95%
[1]; [6]
  inhibition at 1 ppm: 100%
[1]; [7]
  inhibition at 10 ppm: 100%
[1]
  IC50: 1 ng/mL (≈ 0.00335 µM)

## CCNC(=O)c1c(OC(C)(CC)CC)ccc2ccccc12 [Example 28, N-ethyl 2-[(1,1-diethylethyl)oxy]-1-naphthamide]
Ggt; [2]
  pest or weed control at 0.02 mg/pot: 19%
Ggt; [3]
  pest or weed control at 0.1 mg/pot: 40%
Ggt; [4]
  pest or weed control at 0.5 mg/pot: 78%
[1]; [5]
  inhibition at 0.1 ppm: 74%
[1]; [6]
  inhibition at 1 ppm: 96%
[1]; [7]
  inhibition at 10 ppm: 96%

## CCCNC(=O)c1c(OC(C)(CC)CC)ccc2ccccc12 [Example 31, N-propyl 2-[(1,1-diethylethyl)oxy]-1-naphthamide]
Ggt; [2]
  pest or weed control at 0.02 mg/pot: 0%
Ggt; [3]
  pest or weed control at 0.1 mg/pot: 0%
Ggt; [4]
  pest or weed control at 0.5 mg/pot: 3%
[1]; [5]
  inhibition at 0.1 ppm: 7%
[1]; [6]
  inhibition at 1 ppm: 17%
[1]; [7]
  inhibition at 10 ppm: 98%

## CCNC(=O)c1c(OC(CC)(CC)CC)ccc2ccccc12 [Example 32, N-ethyl 2-[(1,1-diethylpropyl)oxy]-1-naphthamide]
Ggt; [2]
  pest or weed control at 0.02 mg/pot: 15%
Ggt; [3]
  pest or weed control at 0.1 mg/pot: 35%
Ggt; [4]
  pest or weed control at 0.5 mg/pot: 58%
[1]; [5]
  inhibition at 0.1 ppm: 87%
[1]; [6]
  inhibition at 1 ppm: 97%
[1]; [7]
  inhibition at 10 ppm: 97%
[1]
  IC50: 42.2 ng/mL (≈ 0.135 µM)

## C=CCNC(=O)c1c(OC(CC)(CC)CC)ccc2ccccc12 [Example 33, N-allyl 2-[(1,1-diethylpropyl)oxy]-1-naphthamide]
Ggt; [2]
  pest or weed control at 0.02 mg/pot: 19%
Ggt; [3]
  pest or weed control at 0.1 mg/pot: 45%
Ggt; [4]
  pest or weed control at 0.5 mg/pot: 59%
[1]; [5]
  inhibition at 0.1 ppm: 97%
[1]; [6]
  inhibition at 1 ppm: 100%
[1]; [7]
  inhibition at 10 ppm: 100%
[1]
  IC50: 6.47 ng/mL (≈ 0.0199 µM)

## CCCN(CCC)C(=O)c1c(OC(CC)(CC)CC)ccc2ccccc12 [Example 35, N,N-dipropyl 2-[(1,1-diethylpropyl)oxy]-1-naphthamide]
Ggt; [2]
  pest or weed control at 0.02 mg/pot: 0%
Ggt; [3]
  pest or weed control at 0.1 mg/pot: 0%
Ggt; [4]
  pest or weed control at 0.5 mg/pot: 1%
[1]; [5]
  inhibition at 0.1 ppm: 0%
[1]; [6]
  inhibition at 1 ppm: 19%
[1]; [7]
  inhibition at 10 ppm: 95%

## CCNC(=O)c1c(OC2(C)CCCC2)ccc2ccccc12 [Example 36, N-ethyl 2-[(1-methyl-1-cyclopentyl)oxy]-1-naphthamide]
Ggt; [2]
  pest or weed control at 0.02 mg/pot: 0%
Ggt; [3]
  pest or weed control at 0.1 mg/pot: 0%
Ggt; [4]
  pest or weed control at 0.5 mg/pot: 60%
[1]; [5]
  inhibition at 0.1 ppm: 76%
[1]; [6]
  inhibition at 1 ppm: 98%
[1]; [7]
  inhibition at 10 ppm: 100%
